Experimental data: paper PMC8286840, “Identifying SARS-CoV-2 antiviral compounds by screening for small molecule inhibitors of Nsp3 papain-like protease” (Biochemical Journal, 2021)
Counter-ions that a name gives are not always drawn. Like-named read-outs stand apart in the source and are kept apart here.

Experiments:
[1] = target: T1, SARS-CoV-2 PLpro (nsp3 1564–1878) (Severe acute respiratory syndrome coronavirus 2, UniProt P0DTD1); assay: biochemical; parameters: FRET-quenched peptide (Pro3) cleavage by PLpro, 10 min pre-incubation, slope over 20 min, normalised to no-compound control; conditions: low concentration screen, read-out: % of control remaining
[2] = target: T1, SARS-CoV-2 PLpro (nsp3 1564–1878); assay: biochemical; parameters: FRET-quenched peptide (Pro3) cleavage by PLpro, 10 min pre-incubation, slope over 20 min, normalised to no-compound control; conditions: high concentration screen, read-out: % of control remaining

In the case of `NC(=O)c1cccc(-c2cccc(OC(=O)NC3CCCCC3)c2)c1` [URB597], the remaining activity at 1.25 µM ([1]; Well no.=5889) was 109%, the remaining activity at 1.25 µM ([1]; Well no.=8102) was 95.4% and the remaining activity at 3.75 µM ([2]; Well no.=5889) was 109%. The remaining activity at 3.75 µM ([2]; Well no.=8102) was 94.7%.
`O=C(Nc1cccc(-c2ccccc2)c1)OC1CCCCC1` [URB602] gave a remaining activity at 1.25 µM ([1]; Well no.=5392) of 99.5% and a remaining activity at 3.75 µM ([2]; Well no.=5392) of 105%.
With `CC(C)N1CCC(N2CCCN(c3cccc(C(=O)Nc4ccncc4)n3)CC2)CC1` [USL311] the remaining activity at 1.25 µM ([1]; Well no.=8707) was 99.4% and the remaining activity at 3.75 µM ([2]; Well no.=8707) was 103%.
With `O=C1/C(=C/c2ccc([N+](=O)[O-])cc2)CS(=O)(=O)C/C1=C\c1ccc([N+](=O)[O-])cc1` [Ubiquitin Isopeptidase Inhibitor I, G5] the remaining activity at 1.25 µM ([1]; Well no.=6388) was 93.2% and the remaining activity at 3.75 µM ([2]; Well no.=6388) was 95.7%.
For `CC(=O)[C@@]1(O)CC[C@H]2[C@@H]3CCC4=CC(=O)CCC4=C3[C@@H](c3ccc(N(C)C)cc3)C[C@@]21C` [Ulipristal], the remaining activity at 1.25 µM ([1]; Well no.=4929) was 105% and the remaining activity at 3.75 µM ([2]; Well no.=4929) was 104%.
`O=C(O)CCCCCCCCCC(=O)O` [Undecanedioic acid] gave a remaining activity at 1.25 µM ([1]; Well no.=6785) of 102% and a remaining activity at 3.75 µM ([2]; Well no.=6785) of 99.4%.
`CCCCCCCCCCC(=O)O` [Undecanoic acid] was tested, and the remaining activity at 1.25 µM ([1]; Well no.=4252) was 95.5% and the remaining activity at 3.75 µM ([2]; Well no.=4252) was 91.9%.
Compound `CC(C)(C)C(O)/C(=C\c1ccc(Cl)cc1)n1cncn1` (stereo not shown) [Uniconazole] has a remaining activity at 1.25 µM ([1]; Well no.=8248) of 104% and a remaining activity at 3.75 µM ([2]; Well no.=8248) of 102%.
For `O=c1cc[nH]c(=O)[nH]1` [Uracil], the remaining activity at 1.25 µM ([1]; Well no.=7023) was 103% and the remaining activity at 3.75 µM ([2]; Well no.=7023) was 102%.
In the case of `COc1ccccc1N1CCN(CCCNc2cc(=O)n(C)c(=O)n2C)CC1` [Urapidil hydrochloride], the remaining activity at 1.25 µM ([1]; Well no.=1476) was 98.2% and the remaining activity at 3.75 µM ([2]; Well no.=1476) was 97.2%.
With `O=c1ccn([C@@H]2O[C@H](CO)[C@@H](O)[C@H]2O)c(=O)[nH]1` [Uridin] the remaining activity at 1.25 µM ([1]; Well no.=8849) was 101%, the remaining activity at 3.75 µM ([2]; Well no.=6399) was 106% and the remaining activity at 3.75 µM ([2]; Well no.=8849) was 94.8%.
`O=c1ccn([C@@H]2O[C@H](COP(=O)(O)OP(=O)(O)O)[C@@H](O)[C@H]2O)c(=O)[nH]1` [Uridine 5'-diphosphate sodium] gave a remaining activity at 1.25 µM ([1]; Well no.=1188) of 104% and a remaining activity at 3.75 µM ([2]; Well no.=1188) of 104%.
Compound `O=c1ccn([C@@H]2O[C@H](COP(=O)(O)O)[C@@H](O)[C@H]2O)c(=O)[nH]1` [Uridine 5'-monophosphate disodium salt] has a remaining activity at 1.25 µM ([1]; Well no.=8935) of 112% and a remaining activity at 3.75 µM ([2]; Well no.=8935) of 97.2%.
With `O=c1ccn([C@@H]2O[C@H](COP(=O)(O)O)[C@@H](O)[C@H]2O)c(=O)[nH]1` [Uridine 5'-monophosphate] the remaining activity at 1.25 µM ([1]; Well no.=7495) was 103%, the remaining activity at 1.25 µM ([1]; Well no.=8889) was 101% and the remaining activity at 3.75 µM ([2]; Well no.=7495) was 103%. It also gave a remaining activity at 3.75 µM ([2]; Well no.=8889) of 99%.
In the case of `CC(=O)OC[C@H]1O[C@@H](n2ccc(=O)[nH]c2=O)[C@H](OC(C)=O)[C@@H]1OC(C)=O` [Uridine triacetate], the remaining activity at 1.25 µM ([1]; Well no.=7996) was 92.7% and the remaining activity at 3.75 µM ([2]; Well no.=7996) was 94.1%.
`O=c1ccn([C@@H]2O[C@H](COP(=O)(O)OP(=O)(O)OP(=O)(O)O)[C@@H](O)[C@H]2O)c(=O)[nH]1` [Uridine triphosphate (trisodium salt)] showed a remaining activity at 1.25 µM ([1]; Well no.=7810) of 105% and a remaining activity at 3.75 µM ([2]; Well no.=7810) of 105%.
`O=c1ccn([C@@H]2O[C@H](COP(=O)(O)OP(=O)(O)OP(=O)(O)O)[C@@H](O)[C@H]2O)c(=O)[nH]1` [Uridine triphosphate] was tested, and the remaining activity at 1.25 µM ([1]; Well no.=8933) was 95.1% and the remaining activity at 3.75 µM ([2]; Well no.=8933) was 97.6%.
For `O=c1ccn([C@@H]2O[C@H](COP(=O)(O)OP(=O)(O)O)[C@@H](O)[C@H]2O)c(=O)[nH]1` [Uridine-5'-diphosphate disodium salt], the remaining activity at 1.25 µM ([1]; Well no.=7718) was 96.1% and the remaining activity at 3.75 µM ([2]; Well no.=7718) was 97.7%.
With `O=c1ccn([C@@H]2O[C@H](CO)[C@@H](O)[C@H]2O)c(=O)[nH]1` [Uridine] the remaining activity at 1.25 µM ([1]; Well no.=4716) was 103% and the remaining activity at 3.75 µM ([2]; Well no.=4716) was 104%.
`C[C@H]1[C@H](C)CC[C@]2(C(=O)O)CC[C@]3(C)C(=CC[C@@H]4[C@@]5(C)CC[C@H](O)C(C)(C)[C@@H]5CC[C@]43C)[C@H]12` [Ursolic acid] gave a remaining activity at 1.25 µM ([1]; Well no.=3585) of 107% and a remaining activity at 3.75 µM ([2]; Well no.=3585) of 113%.
Work on `C[C@H]1[C@H](C)CC[C@]2(C(=O)O)CC[C@]3(C)C(=CC[C@@H]4[C@@]5(C)CCC(=O)C(C)(C)[C@@H]5CC[C@]43C)[C@H]12` [Ursonic acid] yielded a remaining activity at 1.25 µM ([1]; Well no.=6448) of 98.3% and a remaining activity at 3.75 µM ([2]; Well no.=6448) of 98.4%.
Compound `CS(=O)(=O)c1ccc(-c2cnc(N)c(C(=O)Nc3ccccc3)n2)cc1` [VE-821] has a remaining activity at 1.25 µM ([1]; Well no.=4790) of 97.8% and a remaining activity at 3.75 µM ([2]; Well no.=4790) of 96.4%.
`O=C1Nc2ccc(Br)cc2/C1=C/c1cc2c([nH]1)CCCC2` [VEGF Receptor 2 Kinase Inhibitor II] showed a remaining activity at 1.25 µM ([1]; Well no.=2651) of 86% and a remaining activity at 3.75 µM ([2]; Well no.=2651) of 87.8%.
Compound `COc1ccc(-c2cnc3c(-c4ccsc4)cnn3c2)cc1` [VEGF Receptor 2 Kinase Inhibitor IV] has a remaining activity at 1.25 µM ([1]; Well no.=2655) of 95.2% and a remaining activity at 3.75 µM ([2]; Well no.=2655) of 97%.
With `CCOC(=O)c1c(C)[nH]c(/C=C2\C(=O)Nc3ccccc32)c1C` [VEGF Receptor 2 Kinase Inhibitor I] the remaining activity at 1.25 µM ([1]; Well no.=2645) was 97.1% and the remaining activity at 3.75 µM ([2]; Well no.=2645) was 102%.
In the case of `N#Cc1ccc(COC[C@H]2O[C@@H](n3c(NCc4ccc(Cl)c(Cl)c4)nc4c(N)ncnc43)[C@H](O)[C@@H]2O)cc1` [VER155008], the remaining activity at 1.25 µM ([1]; Well no.=8816) was 89.7% and the remaining activity at 3.75 µM ([2]; Well no.=8816) was 89.6%.
Work on `CCNC(=O)c1[nH]nc(-c2cc(Cl)c(O)cc2O)c1-c1ccc(OC)cc1` [VER-49009] yielded a remaining activity at 1.25 µM ([1]; Well no.=8622) of 100% and a remaining activity at 3.75 µM ([2]; Well no.=8622) of 100%.
In the case of `CCNC(=O)c1noc(-c2cc(Cl)c(O)cc2O)c1-c1ccc(OC)cc1` [VER-50589], the remaining activity at 1.25 µM ([1]; Well no.=8670) was 95.3% and the remaining activity at 3.75 µM ([2]; Well no.=8670) was 97.5%.
`C=CC(=O)N1CC/C(=C\c2ccc(F)c([N+](=O)[O-])c2)C(=O)/C(=C/c2ccc(F)c([N+](=O)[O-])c2)C1` [VLX1570] gave a remaining activity at 1.25 µM ([1]; Well no.=7794) of 95.6% and a remaining activity at 3.75 µM ([2]; Well no.=7794) of 95.4%.
Work on `COc1ccc(CNC(=O)c2sc3nc(C)cc(C)c3c2N)cc1` [VU0152100] yielded a remaining activity at 1.25 µM ([1]; Well no.=5931) of 95.9%, a remaining activity at 1.25 µM ([1]; Well no.=7293) of 91.9% and a remaining activity at 3.75 µM ([2]; Well no.=5931) of 98.2%. For the same compound, the remaining activity at 3.75 µM ([2]; Well no.=7293) was 88.9%.
For `CCOC(=O)N1CCC(NCCNC(=O)c2ccccc2C)CC1` [VU0357017 (hydrochloride)], the remaining activity at 1.25 µM ([1]; Well no.=6995) was 97.4% and the remaining activity at 3.75 µM ([2]; Well no.=6995) was 95.5%.
`COc1cc(NC(=O)c2ccccn2)ccc1Cl` [VU0361737] gave a remaining activity at 1.25 µM ([1]; Well no.=7189) of 99.9% and a remaining activity at 3.75 µM ([2]; Well no.=7189) of 97.6%.
For `O=C(Nc1cccc(Cl)c1)c1ccccn1` [VU0364770], the remaining activity at 1.25 µM ([1]; Well no.=7761) was 102% and the remaining activity at 3.75 µM ([2]; Well no.=7761) was 105%.
